Activity calls are given as the source filed them. The rule behind the calls is not given here. Where a SMILES comes first, the peptide text is derived from it.
Tests used:
[1] = target: T1, Melanocortin receptor 4 (Homo sapiens, UniProt P32245); assay: Displacement of [125I]-NDP-alpha-MSH from human MC4R expressed in HEK293 cells at 10 uM after 40 mins by gamma counting method; type: cell-based
[2] = target: T2, Melanocortin receptor 5 (Homo sapiens, UniProt P33032); assay: Agonist activity at human MC5R expressed in HEK293 cells assessed as induction of intracellular cAMP accumulation at 10 uM after 3 mins relative to MT-2; type: cell-based; conditions: 0.05 h, read-out: %max
T2 sequence (P33032 whole entry): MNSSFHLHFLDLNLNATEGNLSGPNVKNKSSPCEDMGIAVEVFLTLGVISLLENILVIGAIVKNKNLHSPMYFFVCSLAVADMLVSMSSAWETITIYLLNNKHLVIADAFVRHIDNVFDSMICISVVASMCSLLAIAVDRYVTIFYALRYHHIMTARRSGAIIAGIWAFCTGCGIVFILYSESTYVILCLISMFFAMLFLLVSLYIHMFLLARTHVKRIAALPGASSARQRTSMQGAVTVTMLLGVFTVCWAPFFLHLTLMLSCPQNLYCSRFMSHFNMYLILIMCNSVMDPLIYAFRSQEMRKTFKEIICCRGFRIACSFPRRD

[3] = target: T1, Melanocortin receptor 4; assay: Agonist activity at human MC4R expressed in HEK293 cells assessed as induction of intracellular cAMP accumulation at 10 uM after 3 mins relative to MT-2; type: cell-based; conditions: 0.05 h, read-out: %max
[4] = target: Melanocyte-stimulating hormone receptor (Homo sapiens) (UniProt Q01726); assay: Displacement of [125I]-NDP-alpha-MSH from human MC1R expressed in HEK293 cells at 10 uM after 40 mins by gamma counting method; type: cell-based
Melanocyte-stimulating hormone receptor (Homo sapiens), sequence (Q01726 whole entry, looked up): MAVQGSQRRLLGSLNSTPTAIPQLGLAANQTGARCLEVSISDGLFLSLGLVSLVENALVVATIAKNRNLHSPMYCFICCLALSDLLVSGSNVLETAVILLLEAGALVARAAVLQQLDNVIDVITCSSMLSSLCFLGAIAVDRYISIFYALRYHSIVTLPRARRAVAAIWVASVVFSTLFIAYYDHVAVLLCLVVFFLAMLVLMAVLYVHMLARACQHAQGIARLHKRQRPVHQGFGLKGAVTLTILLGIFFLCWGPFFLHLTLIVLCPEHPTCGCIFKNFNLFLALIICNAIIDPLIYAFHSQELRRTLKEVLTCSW

[5] = target: Melanocyte-stimulating hormone receptor (Homo sapiens) (UniProt Q01726); assay: Agonist activity at human MC1R expressed in HEK293 cells assessed as induction of intracellular cAMP accumulation at 10 uM measured after 3 mins relative to MT-2; type: functional, cell-based
[6] = target: T2, Melanocortin receptor 5; assay: Displacement of [125I]-NDP-alpha-MSH from human MC5R expressed in HEK293 cells at 10 uM after 40 mins by gamma counting method; type: cell-based
[7] = tested on: Anolis carolinensis; assay: Induction of pigmentation effect in lizard at 2 ug/g, ip at 24 hrs post dose; type: functional, organism-based
[8] = tested on: Anolis carolinensis; assay: Induction of pigmentation effect in lizard at 2 ug/g, ip at 1 min post dose; type: functional, organism-based
[9] = target: T3, Melanocortin receptor 3 (Homo sapiens, UniProt P41968); assay: Agonist activity at human MC3R expressed in HEK293 cells assessed as induction of intracellular cAMP accumulation at 10 uM after 3 mins relative to MT-2; type: cell-based; conditions: 0.05 h, read-out: %max
T3 sequence (P41968 whole entry): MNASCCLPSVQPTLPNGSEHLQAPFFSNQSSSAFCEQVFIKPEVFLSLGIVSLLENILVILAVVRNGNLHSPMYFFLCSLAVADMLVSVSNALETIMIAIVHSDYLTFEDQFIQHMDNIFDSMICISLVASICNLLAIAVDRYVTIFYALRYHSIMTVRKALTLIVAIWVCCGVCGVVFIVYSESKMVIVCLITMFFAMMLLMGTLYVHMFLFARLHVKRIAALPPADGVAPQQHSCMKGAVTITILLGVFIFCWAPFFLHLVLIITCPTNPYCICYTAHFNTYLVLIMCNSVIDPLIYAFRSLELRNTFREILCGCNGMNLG

[10] = target: Melanocyte-stimulating hormone receptor (Homo sapiens) (UniProt Q01726); assay: Displacement of [125I]-NDP-alpha-MSH from human MC1R expressed in HEK293 cells after 40 mins by gamma counting method; type: cell-based
[11] = target: T3, Melanocortin receptor 3; assay: Displacement of [125I]-NDP-alpha-MSH from human MC3R expressed in HEK293 cells at 10 uM after 40 mins by gamma counting method; type: cell-based
[12] = target: T2, Melanocortin receptor 5; assay: Agonist activity at human MC5R expressed in HEK293 cells assessed as induction of intracellular cAMP accumulation after 3 mins; type: cell-based; conditions: hek293, 0.05 h

T1 sequence (P32245 whole entry): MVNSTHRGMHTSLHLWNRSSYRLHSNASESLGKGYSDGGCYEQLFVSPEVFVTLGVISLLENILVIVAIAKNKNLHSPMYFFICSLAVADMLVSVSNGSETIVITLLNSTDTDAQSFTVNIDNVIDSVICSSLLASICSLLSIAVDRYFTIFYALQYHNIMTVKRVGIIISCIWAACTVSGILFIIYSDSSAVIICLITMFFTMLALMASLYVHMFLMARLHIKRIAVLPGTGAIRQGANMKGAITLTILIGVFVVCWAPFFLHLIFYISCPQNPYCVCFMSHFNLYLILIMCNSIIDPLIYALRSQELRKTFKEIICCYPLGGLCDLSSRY

inhibition at 10 µM [1]	Emax at 10 µM [2]	inhibition [4]	inhibition at 10 µM [6]	SMILES	further results
100%	0%			CC(C)C[C@H](NC(=O)[C@@H](NC(=O)[C@@H](N)Cc1ccc(O)cc1)C(C)C)C(=O)NCC(=O)N[C@@H](Cc1cnc[nH]1)C(=O)N[C@@H](Cc1ccccc1)C(=O)N[C@@H](CCCNC(=N)N)C(=O)N[C@@H](Cc1c[nH]c2ccccc12)C(=O)N[C@@H](CC(=O)O)C(=O)N[C@@H](CCCNC(=N)N)C(=O)N[C@@H](Cc1ccccc1)C(=O)NCC(N)=O	
100%				CSCC[C@H](NC(=O)[C@@H](NC(=O)[C@@H](N)Cc1ccc(O)cc1)C(C)C)C(=O)NCC(=O)N[C@@H](Cc1cnc[nH]1)C(=O)N[C@@H](Cc1ccccc1)C(=O)N[C@@H](CCCNC(=N)N)C(=O)N[C@@H](Cc1c[nH]c2ccccc12)C(=O)N[C@@H](CC(=O)O)C(=O)N[C@@H](CCCNC(=N)N)C(=O)N[C@@H](Cc1ccccc1)C(=O)NCC(N)=O	Emax at 10 µM [3]: 76%
100%				CCCC[C@H](NC(=O)[C@@H](NC(=O)[C@H](Cc1ccc(O)cc1)NC(C)=O)C(C)C)C(=O)NCC(=O)N[C@@H](Cc1cnc[nH]1)C(=O)N[C@H](Cc1ccccc1)C(=O)N[C@@H](CCCNC(=N)N)C(=O)N[C@@H](Cc1c[nH]c2ccccc12)C(=O)N[C@@H](CC(=O)O)C(=O)N[C@@H](CCCNC(=N)N)C(=O)N[C@@H](Cc1ccccc1)C(=O)NCC(N)=O	
		100%		CSCC[C@H](NC(=O)[C@H](CO)NC(=O)[C@H](Cc1ccc(O)cc1)NC(=O)[C@H](CO)NC(C)=O)C(=O)N[C@@H](CCC(=O)O)CN[C@@H](Cc1cnc[nH]1)C(=O)N[C@@H](Cc1ccccc1)C(=O)N[C@@H](CCCNC(=N)N)C(=O)N[C@@H](Cc1c[nH]c2ccccc12)C(=O)NCC(=O)N[C@@H](CCCCN)C(=O)N1CCC[C@H]1C(=O)N[C@H](C(N)=O)C(C)C	%max [5]: 100%
		100%	0%	CC(C)C[C@H](NC(=O)[C@H](Cc1ccccc1)NC(=O)[C@H](Cc1cnc[nH]1)NC(=O)CNC(=O)[C@H](CC(C)C)NC(=O)[C@@H](NC(=O)[C@@H](N)Cc1ccc(O)cc1)C(C)C)C(=O)N[C@@H](Cc1ccccc1)C(=O)N[C@@H](CC(=O)O)C(=O)N[C@@H](CCCNC(=N)N)C(=O)N[C@@H](Cc1ccccc1)C(=O)NCC(N)=O (H-YVLGHFLFDRFG-NH2)	Activity [7]: inactive; Activity [8]: Active
		100%	0%	CC(C)C[C@H](NC(=O)[C@H](Cc1ccccc1)NC(=O)[C@H](Cc1cnc[nH]1)NC(=O)CNC(=O)[C@H](CC(C)C)NC(=O)[C@@H](NC(=O)[C@@H](N)Cc1ccc(O)cc1)C(C)C)C(=O)N[C@@H](Cc1c[nH]c2ccccc12)C(=O)N[C@@H](CC(=O)O)C(=O)N[C@@H](CCCNC(=N)N)C(=O)N[C@@H](Cc1ccccc1)C(=O)NCC(N)=O (H-YVLGHFLWDRFG-NH2)	Emax at 10 µM [9]: 0%
	0%			CC(C)C[C@H](NC(=O)[C@H](Cc1ccccc1)NC(=O)[C@@H]1CCCN1C(=O)CNC(=O)[C@H](CC(C)C)NC(=O)[C@@H](NC(=O)[C@@H](N)Cc1ccc(O)cc1)C(C)C)C(=O)N[C@@H](Cc1ccccc1)C(=O)N[C@@H](CC(=O)O)C(=O)N[C@@H](CCCNC(=N)N)C(=O)N[C@@H](Cc1ccccc1)C(=O)NCC(N)=O (H-YVLGPFLFDRFG-NH2)	
	0%		32%	CC(C)C[C@H](NC(=O)[C@H](Cc1ccccc1)NC(=O)[C@@H]1CCCN1C(=O)CNC(=O)[C@H](CC(C)C)NC(=O)[C@@H](NC(=O)[C@@H](N)Cc1ccc(O)cc1)C(C)C)C(=O)N[C@@H](Cc1c[nH]c2ccccc12)C(=O)N[C@@H](CC(=O)O)C(=O)N[C@@H](CCCNC(=N)N)C(=O)N[C@@H](Cc1ccccc1)C(=O)NCC(N)=O (H-YVLGPFLWDRFG-NH2)	Emax at 10 µM [3]: 0%
0%	0%			CC(C)C[C@H](NC(=O)[C@@H](NC(=O)[C@@H](N)Cc1ccc(O)cc1)C(C)C)C(=O)NCC(=O)N1CCC[C@H]1C(=O)N[C@@H](Cc1ccccc1)C(=O)N[C@@H](CCCNC(=N)N)C(=O)N[C@@H](Cc1ccccc1)C(=O)N[C@@H](CC(=O)O)C(=O)N[C@@H](CCCNC(=N)N)C(=O)N[C@@H](Cc1ccccc1)C(=O)NCC(N)=O (H-YVLGPFRFDRFG-NH2)	inhibition [10]: 0%; Emax at 10 µM [9]: 0%
				CC(C)C[C@H](NC(=O)[C@@H](NC(=O)[C@@H](N)Cc1ccc(O)cc1)C(C)C)C(=O)NCC(=O)N1CCC[C@H]1C(=O)N[C@@H](Cc1ccccc1)C(=O)N[C@@H](CCCNC(=N)N)C(=O)N[C@@H](Cc1c[nH]c2ccccc12)C(=O)N[C@@H](CC(=O)O)C(=O)N[C@@H](CCCNC(=N)N)C(=O)N[C@@H](Cc1ccccc1)C(=O)NCC(N)=O (H-YVLGPFRWDRFG-NH2)	inhibition at 10 µM [11]: 100%
100%	6%	100%	100%	CCCC[C@H](NC(=O)[C@@H](NC(=O)[C@@H](N)Cc1ccc(O)cc1)C(C)C)C(=O)NCC(=O)N[C@@H](Cc1c[nH]cn1)C(=O)N[C@H](Cc1ccc2ccccc2c1)C(=O)N[C@@H](CCCN=C(N)N)C(=O)NC(Cc1c[nH]c2ccccc12)C(=O)N[C@@H](CC(=O)O)C(=O)N[C@@H](CCCN=C(N)N)C(=O)N[C@@H](Cc1ccccc1)C(=O)NCC(N)=O (stereo in doubt)	Emax at 10 µM [9]: 6%; Activity [12]: 0%; %max [5]: 70%; inhibition at 10 µM [11]: 100%

Reference: ChEMBL document CHEMBL4028888, “Design of MC1R Selective γ-MSH Analogues with Canonical Amino Acids Leads to Potency and Pigmentation” (J Med Chem, 2017)
